Key:
FTC133 tumors = assay: PRRT in FTC133; assay type: in vivo; conditions: FTC133 mice model; VAC 300 µg/kg intraperitoneal daily for 10 days
AR42J tumors = assay: PRRT in AR42J; assay type: in vivo; conditions: AR42J mice model; VAC 300 µg/kg intraperitoneal daily for 10 days
SSTR2 promoter [1] = assay: ChIP assay, histone acetylation at the SSTR2 promoter, BCPAP cells; assay type: cell-based, human; conditions: VAC 4mM, 72h, n=4, relative to control, p<0.001
SSTR2 promoter [2] = assay: ChIP assay, histone acetylation at the SSTR2 promoter, AR42J cells; assay type: cell-based, rat; conditions: VAC 4mM, 72h, n=4, relative to control
SSTR2 promoter [3] = assay: ChIP assay, histone acetylation at the SSTR2 promoter, FTC133 cells; assay type: cell-based, human; conditions: VAC 4mM, 72h
SSTR2 expression [4] = assay: SSTR2 expression in thyroid cancer cells after epigenetic modifiers; assay type: cell-based, human
SSTR2 expression [5] = assay: SSTR2 expression in AR42J cells after VAC; assay type: cell-based, rat; conditions: AR42J cell line; 2 mM or 4 mM for 72 h
examined cell lines = assay: Growth inhibition / cell cycle after VAC treatment; assay type: cell-based; conditions: VAC treatment (Supplemental Figure 3)
[6] = test system: subcutaneous and metastatic mice models; assay: Effect of epigenetic pretreatment on uptake of SST analogs in mice models; assay type: in vivo; conditions: for effect on the uptake of ^86Y-DOTA-EB-TATE within the tumor and normal tissues in comparison with control mice: biodistribution, FTC133 and AR42J tumor-bearing mice
SSTR2 = assay: IHC staining of SSTR2 in tumor tissues of treated mice; assay type: in vivo; conditions: FTC133 (p=0.023) and AR42J (p=0.016) models; VAC 300 µg/kg intraperitoneal daily for 10 days
[7] = test system: acetylated histone 3 and acetylated histone 4; assay: Global histone acetylation; assay type: cell-based; conditions: FTC133, BCPAP, and AR42J cells; VAC 4mM, 72h, n=3

| Structure (SMILES) | effect of VAC pretreatment on the efficacy of ^177Lu-DOTA-EB-TATE (FTC133 tumors) | effect of VAC pretreatment on the efficacy of ^177Lu-DOTA-EB-TATE (AR42J tumors) | increase in H3ac at the SSTR2 promoter (SSTR2 promoter [1]) [fold] | increase in H4ac at the SSTR2 promoter (SSTR2 promoter [1]) [fold] | increase in H3ac at the SSTR2 promoter (SSTR2 promoter [2]; p<0.001) [fold] | increase in H4ac at the SSTR2 promoter (SSTR2 promoter [2]; p<0.01) [fold] | increase in H4 acetylation at the SSTR2 promoter (SSTR2 promoter [3]; n=4, p<0.001) [fold] | H3 acetylation at the SSTR2 promoter (SSTR2 promoter [3]; n=4, p<0.05) | SSTR2 expression (SSTR2 expression [4]; FTC133, BCPAP and TT cells, 2 mM or 4 mM for 72 h) | induction of SSTR2 expression in comparison to TAC and DEC (SSTR2 expression [4]; thyroid cancer cells, 72h) | SSTR2 expression (SSTR2 expression [5]) | effect on cell growth (examined cell lines) | effect on the uptake of ^86Y-DOTA-EB-TATE within the tumor and normal tissues in comparison with control mice [6] | effect of VAC treatment on the uptake of the SST analogs ([6]; subcutaneous and metastatic mice models, VAC 300 µg/kg intraperitoneal daily for 10 days, PET) | SSTR2 expression in tumor tissues compared with placebo (IHC) (SSTR2) | global histone acetylation at the protein level [7] | effect of decitabine treatment on the uptake of ^86Y-DOTA-EB-TATE ([6]; FTC133 and AR42J subcutaneous mice models, decitabine 1 mg/kg intraperitoneal daily for 10 days, PET scans) |
| --- | --- | --- | --- | --- | --- | --- | --- | --- | --- | --- | --- | --- | --- | --- | --- | --- | --- |
| CCCC(CCC)C(=O)O [VAC, valproic acid] | did not improve the efficacy | did not improve the efficacy | 1.9 | 2.9 | 2.8 | 2.7 | 2.4 | slightly, but significantly reduced | significantly upregulated | more potent inducer of SSTR2 expression | significantly upregulated | growth inhibition by promoting cell cycle arrest | Neither VAC nor DEC treatment resulted in any significant difference | no significant effect | higher cytoplasmic SSTR2 expression | increase in H3ac and H4ac | – |
| Nc1ncn([C@H]2C[C@H](O)[C@@H](CO)O2)c(=O)n1 [decitabine] | – | – | – | – | – | – | – | – | – | – | – | – | Neither VAC nor DEC treatment resulted in any significant difference | – | – | – | did not improve the uptake |
